Structures are written as SMILES.

The test system of test [1] is CD4/8 effector cells. Nature of the test: T cell subsets in naive mice (FIG. 13-14). The class given is in vivo, mouse. How it is done:
FIG. 13A. […] Low dose of LB treatment in vivo induced more CD8 (left) and CD4 (right) effector T cells in lymph node. 5 mice per group. Control—PBS, Low dose—0.16 mg/kg, Medium dose—0.32 mg/kg.

Test [2] concerns CT26 tumor. Nature of the test: CT26 syngeneic tumor model: tumor growth and survival. In kind it is in vivo, mouse. Here is the method:
To test the hypothesis that inhibition of PP2A with LB-100 can enhance immune-mediated antitumor responses, rice were implanted with CT26 tumor cells. CT26 is a murine colon adenocarcinoma expressing low level of PD-L1 and is resistant to anti-PD1 therapy. After about 13 days, mice with tumor size between 30-100 mm^3 were randomized into four treatment groups (PBS control, LB-100 only—0.16 mg/kg, anti-PD-1 only—10 mg/kg, or a combination of both). Treatment was given every 2 days for a total of 28 days. Tumor size was assessed every two days (FIGS. 20A-C). Single agent treatment with anti-PD1 was ineffective in reducing tumor burden or increasing survival. LB-100 alone was able to increase median survival from 21 to 33 days (p=0.02). […]
Tumor Inoculation and Animal Studies—CT26 tumor cells (0.5×10^6) were injected subcutaneously in the right side of the abdomen. […] Tumor size were monitored with a digital caliper every 2-3 d and expressed as volume (length×width^2×0.5). […]
LB-100 and aPD-1 combination treatment synergistically elicit rejection of CT26 tumors: To test the hypothesis that PP2A inhibition synergizes with aPD-1 therapy in vivo in aPD-1 refractory tumors, a CT26 tumor was used, which is a murine colorectal carcinoma with high PD-L1 expression but limited response to aPD-1 therapy. […] Tumor growth was assessed every 2 days (FIG. 24A). […]

Test [3] concerns B16F10 cells. As to the kind of experiment: B16F10 melanoma tumor prevention model. Particulars: day 15 after tumor implantation. The class given is in vivo, mouse. Here is the method:
LB-100 and aPD-1 enhance anti-tumor activity in B16 melanoma without histologic evidence of autoimmunity: It was next determined whether LB-100/aPD-1 combination was effective against other aPD-1 resistant tumor. In a tumor prevention model, 6-8 weeks old C57BL/6 mice were randomized into four treatment groups: PBS, LB-100, aPD-1 and combination. B16F10 cells (2.5×10^5) were inoculated 2 days after initiation of treatment subcutaneously in the right thoracic flank. Treatments were administered every two days following survival (FIG. 34A). By day 15 after tumor implantation, there was no difference between control and the single agent arms.
Syngeneic tumor models—Mice were maintained and experiments were conducted with the approval of the NINDS Animal Use and Care Committees. For CT26 tumors: BALB/c (6-8 wk old) were purchased from Charles River Laboratory. CT26 cells (0.5×10^6) were injected into the right flank subcutaneously. […] Treatments were given every 2 days for 30 days. […]

For test [4], the system named is Primary human T cells and Jurkat T cells. Nature of the test: In vitro studies PP2A and CTLA4 (Example 2). In kind it is cell-based. Here is the method: Primary human T cells and Jurkat T cells are treated with LB-100 and T-cell activation levels measured. LB-100 increases activation of the T cells.
Primary human T cells and Jurkat T cells are treated with LB-100 and PP2A:CTLA-4 interaction is assessed. LB-100 decreases the interaction of PP2A and CTLA-4.
Primary human T cells and Jurkat T cells are treated with LB-100 and levels of PP2A phosphorylation are measured. LB-100 increases phosphorylation in the T cells.

In the case of `CN1CCN(C(=O)C2C(C(=O)O)[C@H]3CC[C@@H]2O3)CC1` (stereo partly drawn) [LB-100], the “PD-1 expressing CD8+ T cells in blood” value in test [1] (low dose) was “reduced PD-1 expressing CD8+ T cells in blood”. The “CD4/8 effector cells in lymph node of naïve mice” value in test [1] (low dose 0.16 mg/kg) is “increased CD4/8 effector cells”. Besides, the “PD-1 expressing CD8+ T cells in spleen” value in test [1] (medium dose) is on record as “reduced PD-1 expressing CD8+ T cells in spleen”. Further, the median survival in test [2] (control 21 days, treatment every 2 days) was 33 days. For the same compound, the “tumor growth, single agent” value in test [2] (mouse, in vivo) is listed as “did not significantly decrease tumor growth”. Further, the “tumor size, single agent arms vs control” value in test [3] is listed as “no difference”. For the same compound, in test [4], the “PP2A:CTLA-4 interaction” value is “decreases”, the T-cell activation levels entry is listed as “increases” and the “levels of PP2A phosphorylation in the T cells” value is on record as “increases”.

The values are drawn from patent publication US12168008B2, “Oxabicycloheptanes for modulation of immune response” (LIXTE BIOTECHNOLOGY, INC., priority 2016, dated 2024).
